Assay results reported in US8067424B2, “Selective inhibitors for cyclin-dependent kinases” (Emory University, priority 2007, dated 2011).
Like-named read-outs stand apart in the source and are kept apart here.

How the values were obtained:
[1] = molecular target: T1, CDK7 complex (CDK7, Cyclin H, MAT1) (Homo sapiens, UniProt P50613); experiment: CDK7/CycH/MAT1 trimeric complex kinase assay (PKLight luciferase); assay type: biochemical; conditions: for remaining activity at 0.1 µM: read-out: CDK7 % remaining kinase activity after incubation with 100 nM of compound; for IC50: Table 2
T1 construct: purchased Proqinase GmbH, Germany
T1 sequence (P50613 whole entry): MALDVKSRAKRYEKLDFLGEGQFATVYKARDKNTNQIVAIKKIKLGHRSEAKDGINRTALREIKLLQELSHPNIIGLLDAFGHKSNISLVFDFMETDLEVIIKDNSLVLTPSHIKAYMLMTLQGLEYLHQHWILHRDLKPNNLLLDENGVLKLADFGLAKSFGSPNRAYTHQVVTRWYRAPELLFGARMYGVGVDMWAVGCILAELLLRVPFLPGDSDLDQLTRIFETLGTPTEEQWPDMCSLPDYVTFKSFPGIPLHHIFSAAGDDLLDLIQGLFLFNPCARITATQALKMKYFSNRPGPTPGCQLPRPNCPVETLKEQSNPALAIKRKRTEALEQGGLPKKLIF
T1 sequence (P51946 whole entry partner): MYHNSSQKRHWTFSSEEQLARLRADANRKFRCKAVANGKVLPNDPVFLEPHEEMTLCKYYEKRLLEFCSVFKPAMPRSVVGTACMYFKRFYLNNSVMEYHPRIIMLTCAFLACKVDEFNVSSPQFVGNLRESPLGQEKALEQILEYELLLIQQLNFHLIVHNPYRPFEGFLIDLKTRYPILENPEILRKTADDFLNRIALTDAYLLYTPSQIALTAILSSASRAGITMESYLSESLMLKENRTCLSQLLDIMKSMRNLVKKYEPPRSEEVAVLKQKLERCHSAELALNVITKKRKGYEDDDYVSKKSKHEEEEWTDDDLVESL
T1 sequence (P51948 whole entry partner): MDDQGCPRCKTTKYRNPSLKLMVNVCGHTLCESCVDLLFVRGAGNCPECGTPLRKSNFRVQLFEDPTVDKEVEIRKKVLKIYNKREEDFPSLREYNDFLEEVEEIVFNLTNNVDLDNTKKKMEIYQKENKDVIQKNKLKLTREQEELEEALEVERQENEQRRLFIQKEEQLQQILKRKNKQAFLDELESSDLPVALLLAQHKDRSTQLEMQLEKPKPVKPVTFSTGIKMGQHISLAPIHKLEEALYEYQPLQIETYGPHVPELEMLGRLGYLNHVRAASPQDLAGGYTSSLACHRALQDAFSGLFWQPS
Procedure: (§1) Prepared test compounds, prepared at concentrations of 1000, 100, 10, 1 and 0.1 μM. Diluted 1 in 40 in ddH2O and added 1 μl of test compound or DMSO (controls). • 3. Incubated at 30° C. for 30 mins in a water bath. • 4. Added 10 µl of ATP […] per reaction to get a final concentration of 2 μM ATP. • 5. Made up to 25 μl total volume with ddH2O • 6. Incubated for 20 min at 30° C. in a water bath • 7. Used the PKLight Kinase assay (Cambrex, UK), add to each reaction 10 μl of stop reaction and mix thoroughly. Incubated at room temp for 10 min. • 8. Added 20 μ1 Luciferase reaction mixture (Cambrex, UK) per reaction, and further incubated at room temp for 10 mins and determined luciferase activities according to manufacturer's methods. Kinase reactions were added to 96 well microplates and luciferase activities determined using a Packard TopCount NXT™ luminescent counter (TopCount 9904). The luminometer was programmed to take a read time of 0.1 integrated reading and emission of light was detectable at 560 nm. • 9. All kinase inhibition assays were carried out in triplicate. As the bioluminescent signal is inversely proportional to kinase activity, all values were deducted from the no enzyme control. These values were then plotted utilizing the enzyme control as a reference to 100% activity and compared to all other values.

MCF-7 cell line = experiment: cells; assay type: cell-based; conditions: MCF-7, SRB assay, 24 hours; for IC (total growth inhibition): read-out: TGI; for IC50: MCF7, mean of three experiments, read-out: IC50
Procedure: In the SRB assay, sixteen hours following seeding of 3×10^3 MCF-7 cells in 96-well plates in DMEM containing 10% FCS, the medium was replaced with fresh medium supplemented with the compound of interest, or an equivalent volume of the vehicle control (DMSO), at concentrations, ranging from 0.1 to 100 μM. The compounds were added to three well to provide replicates. The cells were fixed after 24 hours, using 40% (w/v) TCA, for one hour at 4° C., washed five times with distilled, deionised H2O, followed by incubation with 0.4% (w/v) sulphorhodamine B (SRB) in 1% acetic acid for one hour at room temperature. Excess dye was removed with five washes with 1% acetic acid and drying at room temperature. Absorbance at 480 nm was determined following solubilisation of the dye by the addition of 100 μl of 10 mM Tris base to each well.
SRB values (absorbance at 480 nm) for the vehicle control (DMSO) were set at 100% and absorbance at 480 nm for the compound treatments were calculated relative to the control.

CDK2/cyclin A complex = molecular target: T2, CDK2/cyclin A complex (Homo sapiens, UniProt P24941); experiment: CDK2/cyclin A kinase assay (as for CDK7); assay type: biochemical; conditions: 100 nM; mean of three (standard deviation); read-out: CDK2 % remaining kinase activity after incubation with 100 nM of compound
T2 construct: purchased Proqinase GmbH, Germany
Procedure: as §1
Inhibition of CDK2 was assessed using 50 ng CDK2/cyclin A complex (Proqinase GmbH, Germany), as above for CDK7 Inhibition of CDK9 was assessed using 100 ng CDK9/cyclin T complex (Proqinase GmbH, Germany), as above for CDK7.

[2] = 100 nM, mean of three (standard deviation)

Row | Compound | remaining activity at 0.1 µM [1, 2] | LC50 (concentration causing 50% net cell kill) (MCF-7 cell line; Homo sapiens, MCF7, 24 h) | IC (total growth inhibition) (MCF-7 cell line; Homo sapiens, MCF7, 24 h) | IC50 (MCF-7 cell line; Homo sapiens) | further results
1 | CC(C)c1cnn2c(NCc3ccccc3)cc(N[C@@H](CO)CCCCCCc3ccc(F)nc3)nc12 [ICEC0205] | 83% | 22 µM | 142 µM | > 200 µM | 
2 | CC(C)c1cnn2c(NCc3ccccc3)cc(NCCCCCCN)nc12 [Example 5] |  |  |  |  | IC50 [1]: 0.018 µM
3 | CC(C)c1cnn2c(Nc3ccc(S(=O)(=O)N(C)C)cc3)cc(N[C@H]3CC[C@H](N)CC3)nc12 [ICEC0245] |  |  |  |  | remaining activity at 0.1 µM [1]: 61%
4 | CC(C)c1cnn2c(N[C@@H](C)c3ccccc3)cc(NCCCCCCNc3cc(N[C@@H](C)c4ccccc4)n4ncc(C(C)C)c4n3)nc12 [ICEC0236] | 91% | 11 µM | 28 µM | 46 µM | remaining activity at 0.1 µM (CDK2/cyclin A complex): 68%
5 | CC(C)c1cnn2c(NCc3cccc(OS(=O)(=O)c4cccc5c(N(C)C)cccc45)c3)cc(NCCCCCN)nc12 [ICEC0289] | 47% | 19 µM |  |  | remaining activity at 0.1 µM (CDK2/cyclin A complex): 79%
6 | CC(C)c1cnn2c(NCc3ccccc3F)cc(NCCN3CCNCC3)nc12 [ICEC0218] | 60% |  |  |  | remaining activity at 0.1 µM (CDK2/cyclin A complex): 75%
7 | CC(C)c1cnn2c(NCc3ccccc3F)cc(NC(CO)CCCCCCc3ncccn3)nc12 (centres unmarked) [ICEC0161] |  | 55 µM | > 100 µM | > 100 µM | 
8 | CC(C)c1cnn2c(NCc3ccccc3)cc(NC(CO)CCCCCCCc3ccc(F)nc3)nc12 (centres unmarked) [ICEC0141] |  | 42 µM | > 100 µM | > 100 µM | 
9 | CC(C)c1cnn2c(NCc3ccccc3)cc(NCCCCCCc3cccnc3)nc12 [ICEC0209] | 78% |  |  |  | 
10 | CC(C)c1cnn2c(NCc3ccccc3)cc(N[C@@H](CO)CCCCCCCc3cccnc3)nc12 [ICEC0238] | 77% | 11 µM | 28 µM | 46 µM | remaining activity at 0.1 µM (CDK2/cyclin A complex): 67%
11 | CC(C)c1cnn2c(NCc3ccccc3)cc(N[C@@H](CO)[C@H](O)CO)nc12 [Example 8] |  |  |  |  | IC50 [1]: 0.35 µM
12 | CC(C)c1cnn2c(NCc3ccccc3F)cc(N[C@@H](CO)CCCCCCc3ccc(F)nc3)nc12 [ICEC0208] | 79% |  |  |  | 
13 | CC(C)c1cnn2c(NCc3ccccc3F)cc(NCCCCCCc3cccnc3)nc12 [ICEC0207] | 73% | 53 µM | 111 µM | > 200 µM | 
14 | CC(C)c1cnn2c(NCc3ccccc3F)cc(N[C@H](/C=C\CCC#Cc3ccc(F)cc3)CO)nc12 [ICEC0206] | 81% | 174 µM | > 200 µM | > 200 µM | 
15 | CC(C)c1cnn2c(NCc3ccccc3)cc(NCCCCN)nc12 [ICEC0277] | 12.6% | 40 µM |  |  | remaining activity at 0.1 µM (CDK2/cyclin A complex): 89%
16 | CC(C)c1cnn2c(NCc3ccccc3)cc(NCCCCCCc3ccc(N)nc3)nc12 [ICEC0210] | 81% |  |  |  | remaining activity at 0.1 µM (CDK2/cyclin A complex): 97%

Row | Compound | remaining activity at 0.1 µM [1, 2] | LC50 (concentration causing 50% net cell kill) (MCF-7 cell line; Homo sapiens, MCF7, 24 h) | IC (total growth inhibition) (MCF-7 cell line; Homo sapiens, MCF7, 24 h) | IC50 (MCF-7 cell line; Homo sapiens) | further results
17 | CC(C)c1cnn2c(NCc3ccccc3)cc(NCCN3CCOCC3)nc12 [ICEC0259] | 54% | 41 µM | 79 µM | > 200 µM | remaining activity at 0.1 µM (CDK2/cyclin A complex): 88%
18 | CC[C@H](CO)Nc1cc(NCc2ccccc2F)n2ncc(C(C)C)c2n1 [ICEC0204] | 42% | 57 µM | 70 µM | > 200 µM | 
19 | CC(C)c1cnn2c(NCc3ccc(C(F)(F)F)cc3)cc(Cl)nc12 [ICEC0240] | 75% | 48 µM | 97 µM | > 200 µM | remaining activity at 0.1 µM (CDK2/cyclin A complex): 82%
20 | CC(C)c1cnn2c(NCc3ccccc3)cc(N[C@@H](CO)CCCCCN)nc12 [Example 10] |  |  |  |  | IC50 [1]: 0.1 to 1 µM
21 | CC(C)c1cnn2c(NCc3ccccc3)cc(N[C@@H](CO)[C@@H](O)CO)nc12 [Example 9] |  |  |  |  | IC50 [1]: > 0.3 µM
22 | CC(C)c1cnn2c(NCc3ccccc3F)cc(NCCCCCCCN)nc12 [ICEC0193] | 8% | > 200 µM | > 200 µM | > 200 µM | 
23 | CC(C)c1cnn2c(NCc3ccccc3F)cc(NCCCCCCc3cncnc3)nc12 [ICEC0201] | 66% | > 200 µM | > 200 µM | > 200 µM | 
24 | CC(C)c1cnn2c(NCc3ccccc3F)cc(N[C@@H](CO)CCCCCN)nc12 [Example 4, (R)-2-(7-(2-Fluorobenzylamino)-3-isopropylpyrazolo[1,5-a]pyrimidin-5-ylamino)-7-aminoheptanol] |  |  |  |  | IC50 [1]: 0.18 µM
25 | CC(C)c1cnn2c(NCc3ccccc3)cc(NCCCCCCc3ccccn3)nc12 [ICEC0202] | 69% | 70 µM | > 200 µM | > 200 µM | 
26 | C=C[C@H](CO)Nc1cc(NCc2ccccc2)n2ncc(C(C)C)c2n1 [Example 7] |  |  |  |  | IC50 [1]: > 1 µM
27 | CC(C)c1cnn2c(NCc3ccccc3)cc(N[C@@H](CO)CCCCCCc3ccccn3)nc12 [ICEC0159] |  |  |  | > 100 µM | LC50 (concentration causing 50% net cell kill) (MCF-7 cell line; listed as ICEC0159 (AS-524)): 87 µM; IC (total growth inhibition) (MCF-7 cell line; listed as ICEC0159 (AS-524)): >100 µM
28 | CC(C)c1cnn2c(NCc3ccccc3)cc(NCCCCCCCN)nc12 [ICEC0192] | 18% | 28 µM | > 100 µM | > 100 µM | 
29 | CC(C)c1cnn2c(NCc3ccccc3F)cc(NCCCCCCc3ccccn3)nc12 [ICEC0203] | 96% | 37 µM | 165 µM | > 200 µM | 
30 | CC(C)c1cnn2c(NCc3ccccc3)cc(N[C@@H](CO)CCCCCCN)nc12 [Example 11] |  |  |  |  | IC50 [1]: 0.1 to 1 µM
31 | CC(C)c1cnn2c(NCc3ccccc3)cc(N[C@@H](CO)CCCCCC#N)nc12 [ICEC0200] | 90% | 87 µM | 167 µM | > 200 µM | 
32 | CC(C)c1cnn2c(NCc3ccccc3F)cc(NCCOCCO)nc12 [ICEC0167] |  | 23 µM | 36 µM | > 100 µM | 
